Test results reported in patent US20190183890A1, “METHODS AND COMPOSITIONS FOR PROMOTING HAIR GROWTH” (Rophe Pharma, Inc., priority 2016, published 2019).

Experiments:
[1] = system: androgenic alopecia; conditions: topical
[2] = system: androgenic alopecia

Cl.NNc1nncc2ccccc12 [hydralazine, 1-hydrazinophthalazine monohydrochloride]
hair regrowth ([1]; 0.2% solution in glycol, alcohol and water, over 200 patients, mostly androgenic alopecia): hair grew back | time until hair growth visible ([1]; 0.2% solution, treatment has to be continued every month to sustain the hair): visible after the first month | men with visible enhancement in hair count and hair thickness ([2]; 12 men aged 33-69 years, 150, then 300, then 600 mg/100 ml, after 6-8 weeks of treatment): 11 out of the 12 | treatment time to visible enhancement in hair count and hair thickness ([2]; 12 men, 150 to 600 mg/100 ml): 6-8 weeks | onset of effect compared with Rogaine ([2]; 12 men, visible enhancement after 6-8 weeks): much faster onset of effect than Rogaine
